Experiments:
hP2X7 = biological target: T1, hP2X7 (Homo sapiens, UniProt Q99572); experiment: P2X7 antagonism: ligand-induced Ca2+ flux in 1321N1 astrocytoma cells overexpressing hP2X7; format: cell-based; details: pIC50 = -log(IC50), read-out: hP2RX7pIC50 (mean pIC50 values) (converted)
T1 construct: expressed in transfected cells; host or cells: 1321N1 astrocytoma cells
T1 sequence (Q99572 1-595): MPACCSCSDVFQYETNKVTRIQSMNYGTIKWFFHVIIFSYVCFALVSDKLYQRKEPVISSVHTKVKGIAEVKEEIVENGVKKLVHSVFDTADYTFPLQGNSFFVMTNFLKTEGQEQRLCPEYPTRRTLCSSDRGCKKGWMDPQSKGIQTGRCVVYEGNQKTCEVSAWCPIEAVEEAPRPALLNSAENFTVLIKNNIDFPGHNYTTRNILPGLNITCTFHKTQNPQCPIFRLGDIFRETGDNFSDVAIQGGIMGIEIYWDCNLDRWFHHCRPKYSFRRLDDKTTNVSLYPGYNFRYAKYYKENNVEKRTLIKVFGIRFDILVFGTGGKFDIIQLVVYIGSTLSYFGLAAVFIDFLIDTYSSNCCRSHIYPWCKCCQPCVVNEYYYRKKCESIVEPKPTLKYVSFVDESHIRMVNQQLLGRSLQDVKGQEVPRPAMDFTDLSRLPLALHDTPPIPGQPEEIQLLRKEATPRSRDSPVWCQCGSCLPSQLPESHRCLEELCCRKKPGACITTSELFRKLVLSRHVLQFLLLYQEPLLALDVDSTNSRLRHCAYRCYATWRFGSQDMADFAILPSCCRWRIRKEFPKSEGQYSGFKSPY
How it was run: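 Intracellular Ca2+ tracked with a quenched Ca2+-sensitive fluorescent dye kit (excitation 488 nm, emission 510-560 nm) in 1321N1 cells, before and after agonist addition in presence of antagonist. Effects expressed as % control and IC50.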

P2X7 = biological target: T2, P2X7 (Homo sapiens, UniProt Q99572); experiment: THP-1 YoPro uptake assay (BzATP-stimulated Yo-Pro-1 uptake); format: cell-based; details: Table F-10, THP-1 cells, read-out: mean pIC50 values for P2X7 antagonism (converted)
T2 construct: endogenous in cells; host or cells: THP-1 human monocytic cell line
T2 sequence (Q99572 1-595): T1 sequence (Q99572 1-595)
Method: The human monocytic cell line THP-1 was grown as a suspension culture in RPMI medium supplemented with 10% fetal bovine serum, penicillin/streptomycin (50 units/mL), 2 mM L-glutamine, and 20 μM 2-mercaptoethanol. Cells were maintained at a density below 0.5 million per mL. On the day of the assay, cells were washed twice with assay buffer, and then resuspended at 2 million per mL in assay buffer containing 2 μM Yo-Pro-1 (Invitrogen). The assay buffer contained (in mM): 280 sucrose, 5 KCl, 10 glucose, 10 HEPES, 5 N-methyl-D-glucamine. The cells were added at 200 k/well into poly-D-lysine-coated black-walled 96-well plates (Biocoat, Becton-Dickinson). Test compounds were dissolved in DMSO, and then added at the test concentration to each well of the 96-well plate. Concentration dependence of block was determined by exposing each well of cells in duplicate rows of a 96-well plate to a serial dilution of test compound. The concentration series usually started at 10 μM with a three-fold decrement in concentration. The final DMSO concentration seen by the cells was less than 0.5%. Cells were incubated with test compounds for 30 minutes at 37° C. A background reading was taken using a Gemini SpectraMax with 490 nm excitation and 530 nm emission. […] After incubation for 60 minutes at 37° C., an endpoint read was taken in the SpectraMax plate reader. The amount of block of the response was determined by comparing the fluorescence intensity in each well to the average of control wells on each plate. The control wells contained either a known antagonist of P2X7 (positive controls) or a concentration of DMSO equal to that in the test wells. Data were analyzed using a nonlinear regression program (Origin, OriginLab, MA). Results are reported as the −log of the IC50 (pIC50).

IC50 (hP2X7)	IC50 (P2X7)	SMILES
70.8 nM		O=C(NCC(c1cnc(C(F)(F)F)nc1)N1CCOCC1)c1cccc2nc(NCC3CCCC3)ccc12 (centres unmarked) [Compound 275]
75.9 nM		CCc1ncc(C(CNC(=O)c2cccc3nc(N4CCCC4)ccc23)N2CCC(F)(F)CC2)cn1 (centres unmarked) [Compound 282]
38 nM		COc1ncc(C(CNC(=O)c2cccc3nc(N4CCCC4)ccc23)N2CCC(F)(F)CC2)cn1 (centres unmarked) [Compound 286]
46.8 nM		CC(C)N1CCN(c2ccc3c(C(=O)NCC(c4cnc(OCC5CC5)nc4)N4CCC(F)(F)CC4)cccc3n2)CC1 (centres unmarked) [Compound 291]
115 nM		CCc1ncc(C(CNC(=O)c2cccc3nc(N4CCN(C(C)C)CC4)ccc23)N2CCC(F)(F)CC2)cn1 (centres unmarked) [Compound 292]
105 nM		O=C(NCC(c1cnc(C2CCCC2)nc1)N1CCC(F)(F)CC1)c1cccc2nc(NCC3CC3)ccc12 (centres unmarked) [Compound 293]
67.6 nM		O=C(NCC(c1cnc(OC2CCC2)nc1)N1CCC(F)(F)CC1)c1cccc2nc(NCC3CC3)ccc12 (centres unmarked) [Compound 294]
123 nM		CCc1ncc(C(CNC(=O)c2cccc3nc(NCC4CC4)ccc23)N2CCOCC2)cn1 (centres unmarked) [Compound 296]
45.7 nM		CCOc1ncc(C(CNC(=O)c2cccc3nc(N4CCN(C(C)C)CC4)ccc23)N2CCC(F)(F)CC2)cn1 (centres unmarked) [Compound 298]
37.2 nM		CC(C)N1CCN(c2ccc3c(C(=O)NCC(c4cnc(OC5CCC5)nc4)N4CCC(F)(F)CC4)cccc3n2)CC1 (centres unmarked) [Compound 300]
166 nM		O=C(NCC(c1cnc(N2CCNCC2)nc1)N1CCC(F)(F)CC1)c1cccc2nc(N3CCCC3)ccc12 (centres unmarked) [Compound 301]
81.3 nM		CC(C)N1CCN(c2ccc3c(C(=O)NCC(c4cnc(N)nc4)N4CCC(F)(F)CC4)cccc3n2)CC1 (centres unmarked) [Compound 302]
28.2 nM		O=C(NCC(c1cnc(OCC2CC2)nc1)N1CCC(F)(F)CC1)c1cccc2nc(N3CCCC3)ccc12 (centres unmarked) [Compound 304]
100 nM		CC(C)Oc1ncc(C(CNC(=O)c2cccc3nc(N4CCCC4)ccc23)N2CCC(F)(F)CC2)cn1 (centres unmarked) [Compound 305]
45.7 nM		O=C(NCC(c1cnc(C2CCCC2)nc1)N1CCC(F)(F)CC1)c1cccc2nc(N3CCCC3)ccc12 (centres unmarked) [Compound 307]
49 nM		CC(C)c1ncc(C(CNC(=O)c2cccc3nc(N4CCCC4)ccc23)N2CCC(F)(F)CC2)cn1 (centres unmarked) [Compound 308]
151 nM		O=C(NCC(c1cnc(C2CCCC2)nc1)N1CCOCC1)c1cccc2nc(N3CCOCC3)ccc12 (centres unmarked) [Compound 314]

The next lines start with the molecule.

SMILES	IC50 (hP2X7)	IC50 (P2X7)
CC(C)(C)C1CCN(c2ccc3c(C(=O)NCC(c4cnc(C(F)(F)F)nc4)N4CCOCC4)cccc3n2)CC1 (centres unmarked) [Compound 276]	813 nM	
CC(C)OC1CCN(c2ccc3c(C(=O)NCC(c4cnc(C(F)(F)F)nc4)N4CCOCC4)cccc3n2)CC1 (centres unmarked) [Compound 277]	46.8 nM	
COCC(C)Nc1ccc2c(C(=O)NCC(c3cnc(C(F)(F)F)nc3)N3CCOCC3)cccc2n1 (centres unmarked) [Compound 278]	87.1 nM	
CCN(CC)c1ccc2c(C(=O)NCC(c3cnc(C(F)(F)F)nc3)N3CCOCC3)cccc2n1 (centres unmarked) [Compound 279]	77.6 nM	
CC(C)CN1CCN(c2ccc3c(C(=O)NCC(c4cnc(C(F)(F)F)nc4)N4CCOCC4)cccc3n2)CC1 (centres unmarked) [Compound 280]	95.5 nM	
COCCN1CCN(c2ccc3c(C(=O)NCC(c4cnc(C(F)(F)F)nc4)N4CCOCC4)cccc3n2)CC1 (centres unmarked) [Compound 281]	75.9 nM	
O=C(NCC(c1cnc(-c2ccccc2)nc1)N1CCC(F)(F)CC1)c1cccc2nc(N3CCCC3)ccc12 (centres unmarked) [Compound 283]	115 nM	
CC(C)Oc1ncc(C(CNC(=O)c2cccc3nc(N4CCCC4)ccc23)N2CCOCC2)cn1 (centres unmarked) [Compound 284]	67.6 nM	
CC(C)N1CCN(c2ccc3c(C(=O)NCC(c4cnc(N5CCCC5)nc4)N4CCOCC4)cccc3n2)CC1 (centres unmarked) [Compound 285]	158 nM	
O=C(NCC(c1cnc(N2CCNCC2)nc1)N1CCC(F)(F)CC1)c1cccc2nc(N3CCOCC3)ccc12 (centres unmarked) [Compound 287]	105 nM	
CC(C)c1ncc(C(CNC(=O)c2cccc3nc(N4CCN(C(C)C)CC4)ccc23)N2CCOCC2)cn1 (centres unmarked) [Compound 288]	135 nM	
CC(C)Oc1ncc(C(CNC(=O)c2cccc3nc(N4CCN(C(C)C)CC4)ccc23)N2CCOCC2)cn1 (centres unmarked) [Compound 289]	64.6 nM	
CCc1ncc(C(CNC(=O)c2cccc3nc(N4CCCC4)ccc23)N2CCOCC2)cn1 (centres unmarked) [Compound 290]	135 nM	
CCc1ncc(C(CNC(=O)c2cccc3nc(N4CCN(C(C)C)CC4)ccc23)N2CCOCC2)cn1 (centres unmarked) [Compound 295]	209 nM	
CC(C)N1CCN(c2ccc3c(C(=O)NCC(c4cncnc4)N4CCC(F)(F)CC4)cccc3n2)CC1 (centres unmarked) [Compound 297]	32.4 nM	
CC(C)c1ncc(C(CNC(=O)c2cccc3nc(N4CCN(C(C)C)CC4)ccc23)N2CCC(F)(F)CC2)cn1 (centres unmarked) [Compound 299]	110 nM	
CCOc1ncc(C(CNC(=O)c2cccc3nc(N4CCCC4)ccc23)N2CCOCC2)cn1 (centres unmarked) [Compound 303]	52.5 nM	
CC(C)Oc1ncc(C(CNC(=O)c2cccc3nc(N4CCN(C(C)C)CC4)ccc23)N2CCC(F)(F)CC2)cn1 (centres unmarked) [Compound 306]	46.8 nM	

SMILES	IC50 (hP2X7)	IC50 (P2X7)
CC(=O)N1CCN(c2ncc(C(CNC(=O)c3cccc4nc(N5CCN(C(C)C)CC5)ccc34)N3CCC(F)(F)CC3)cn2)CC1 (centres unmarked) [Compound 309]	74.1 nM	
CCOc1ncc(C(CNC(=O)c2cccc3nc(N4CCN(C(C)C)CC4)ccc23)N2CCOCC2)cn1 (centres unmarked) [Compound 310]	56.2 nM	
CCc1ncc(C(CNC(=O)c2cccc3nc(N4CCOCC4)ccc23)N2CCOCC2)cn1 (centres unmarked) [Compound 311]	112 nM	
CC(C)N1CCN(c2ccc3c(C(=O)NCC(c4cnc(N5CCNCC5)nc4)N4CCC(F)(F)CC4)cccc3n2)CC1 (centres unmarked) [Compound 312]	105 nM	
O=C(NCC(c1cnc(OC2CCC2)nc1)N1CCOCC1)c1cccc2nc(N3CCOCC3)ccc12 (centres unmarked) [Compound 313]	117 nM	
O=C(NCC(c1cnc(-c2ccccc2)nc1)N1CCOCC1)c1cccc2nc(N3CCOCC3)ccc12 (centres unmarked) [Compound 315]	42.7 nM	
O=C(NCC(c1cnc(C(F)(F)F)nc1)N1CCC(F)(F)CC1)c1c(Cl)ccc2nc(N3CCOCC3)ccc12 (centres unmarked) [Compound 403]		14.8 nM
CN(C)[C@@H]1CCN(c2ccc3c(C(=O)NCC(c4cnc(C(F)(F)F)nc4)N4CCOCC4)c(Cl)ccc3n2)C1 (some centres unmarked) [Compound 406]		8.71 nM
CN(C)[C@H]1CCN(c2ccc3c(C(=O)NCC(c4cnc(C(F)(F)F)nc4)N4CCOCC4)c(Cl)ccc3n2)C1 (some centres unmarked) [Compound 407]		7.41 nM
CC(C)CN1CCN(c2ccc3c(C(=O)NCC(c4cnc(C(F)(F)F)nc4)N4CCOCC4)c(Cl)ccc3n2)CC1 (centres unmarked) [Compound 408]		6.76 nM
O=C(NCC(c1cnc(C(F)(F)F)nc1)N1CCOCC1)c1c(Cl)ccc2nc(N3CCN(C4CC4)CC3)ccc12 (centres unmarked) [Compound 409]		3.39 nM
CC(C)N1CCN(c2ccc3c(C(=O)NCC(c4cnc(C(F)(F)F)nc4)N4CCOCC4)c(Cl)ccc3n2)CC1 (centres unmarked) [Compound 410]		5.01 nM
CCN1CCN(c2ccc3c(C(=O)NCC(c4cnc(C(F)(F)F)nc4)N4CCOCC4)c(Cl)ccc3n2)CC1 (centres unmarked) [Compound 411]		5.62 nM
CN(C)CCNc1ccc2c(C(=O)NCC(c3cnc(C(F)(F)F)nc3)N3CCOCC3)c(Cl)ccc2n1 (centres unmarked) [Compound 412]		5.13 nM
N[C@@H]1CCCN(c2ccc3c(C(=O)NCC(c4cnc(C(F)(F)F)nc4)N4CCOCC4)c(Cl)ccc3n2)C1 (some centres unmarked) [Compound 413]		5.13 nM
O=C(NCC(c1cnc(C(F)(F)F)nc1)N1CCOCC1)c1c(Cl)ccc2nc(N3CCCCC3)ccc12 (centres unmarked) [Compound 414]		4.17 nM
O=C(NCC(c1cnc(C(F)(F)F)nc1)N1CCOCC1)c1c(Cl)ccc2nc(N3CCCC3)ccc12 (centres unmarked) [Compound 415]		2.4 nM
O=C(NCC(c1cnc(C(F)(F)F)nc1)N1CCOCC1)c1c(Cl)ccc2nc(N3CCC3)ccc12 (centres unmarked) [Compound 416]		1.74 nM
